Test results: ChEMBL document CHEMBL4196190, “Tetrahydrobenzofuran-6(2 H)-one Neolignans from Ocotea heterochroma: Their Platelet Activating Factor (PAF) Antagonistic Activity and in Silico Insights into the PAF Receptor Binding Mode” (J Nat Prod, 2018)

Assay: Antagonist activity at rabbit PAF receptor assessed as inhibition of PAF-induced platelet aggregation incubated for 5 mins followed by PAF addition
Conditions: Oryctolagus cuniculus

Row | IC50 [nM] | Structure (SMILES)
1 | 230 | C=CC[C@H]1C[C@]2(OC)C(=C(OC)C1=O)O[C@@H](c1cc(OC)c(OC)c(OC)c1)[C@@H]2C
2 | 390 | C=CC[C@H]1C[C@]2(OC)C(=C(OC)C1=O)O[C@@H](c1cc(OC)c3c(c1)OCO3)[C@@H]2C
3 | 1090 | C=CCC1=C[C@]2(OC)[C@H](C)[C@@H](c3cc(OC)c4c(c3)OCO4)[C@](OC)(C1=O)[C@H]2O [CINERIN C]
4 | 930 | C[C@@H]1C(=O)O[C@H]2[C@H](O)[C@@]34[C@H]5C[C@@H](C(C)(C)C)[C@]36[C@@H](OC(=O)[C@@H]6O)O[C@@]4(C(=O)O5)[C@@]12O [GINKOLIDE B]
5 | 150 | C=CCC1=C[C@@]2(OC)C(=CC1=O)O[C@H](c1ccc(OC)c(OC)c1)[C@H]2C [KADSURENONE]
